Drawing on patent US10870647B2, “Imidazopyridine derivative, method for preparing same, and pharmaceutical composition containing same as active ingredient for preventing or treating cancer” (DAEGU-GYEONGBUK MEDICAL INNOVATION FOUNDATION, priority 2016, dated 2020), this text covers remaining binding for three compounds.

Common to all, as to experiment: Kinase selectivity, scanMAX Kinase assay panel (DiscoverX), % control at 1 uM
Common to all, as to format: binding

Test [1] has as its target T1, scanMAX Kinase assay panel (Homo sapiens, UniProt P06241).
T1 construct: purchased DiscoverX
The following applies: FYN; 1 uM; read-out: Percent Control (%). The procedure, abridged:
(§1)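 A single concentration of 1 uM, in DMSO, is applied across the kinase panel. Activity against an individual enzyme is assigned where % control is less than 35.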

Test [2] addresses T2, scanMAX Kinase assay panel (Homo sapiens, UniProt P08069).
T2 construct: purchased DiscoverX
The following applies: IGF1R; 1 uM; read-out: Percent Control (%). The procedure, abridged: as §1

Test [3] concerns the target T3, scanMAX Kinase assay panel (Homo sapiens, UniProt P09769).
T3 construct: purchased DiscoverX
The note with it: FGR; 1 uM; read-out: Percent Control (%). The procedure, abridged: as §1

Test [4] concerns the target T4, scanMAX Kinase assay panel (Homo sapiens, UniProt P78362).
T4 construct: purchased DiscoverX
The note with it: SRPK2; 1 uM; read-out: Percent Control (%). The procedure, abridged:
as §1

Test [5] has as its target T5, scanMAX Kinase assay panel (Homo sapiens, UniProt Q13627).
T5 construct: purchased DiscoverX
The note with it: DYRK1A; 1 uM; read-out: Percent Control (%). The procedure, abridged:
as §1

Test [6] deals with T6, scanMAX Kinase assay panel (Homo sapiens, UniProt Q15759).
T6 construct: purchased DiscoverX
T6 sequence (Q15759 whole entry): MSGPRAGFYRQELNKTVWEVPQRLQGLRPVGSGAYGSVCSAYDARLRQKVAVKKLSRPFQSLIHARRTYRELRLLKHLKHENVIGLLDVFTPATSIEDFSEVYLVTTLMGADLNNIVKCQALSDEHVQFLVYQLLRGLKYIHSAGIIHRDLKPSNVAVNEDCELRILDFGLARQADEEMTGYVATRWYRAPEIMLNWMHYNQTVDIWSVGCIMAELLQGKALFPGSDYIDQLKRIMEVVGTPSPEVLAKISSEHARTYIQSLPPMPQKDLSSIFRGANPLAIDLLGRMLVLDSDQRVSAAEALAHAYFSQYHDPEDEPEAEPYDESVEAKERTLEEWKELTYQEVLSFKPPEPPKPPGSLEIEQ
The note with it: p38-beta; 1 uM; read-out: Percent Control (%). The procedure, abridged:
as §1

For test [7], the target named is T7, scanMAX Kinase assay panel (Homo sapiens, UniProt Q9BRS2).
T7 construct: purchased DiscoverX
T7 sequence (Q9BRS2 1-568): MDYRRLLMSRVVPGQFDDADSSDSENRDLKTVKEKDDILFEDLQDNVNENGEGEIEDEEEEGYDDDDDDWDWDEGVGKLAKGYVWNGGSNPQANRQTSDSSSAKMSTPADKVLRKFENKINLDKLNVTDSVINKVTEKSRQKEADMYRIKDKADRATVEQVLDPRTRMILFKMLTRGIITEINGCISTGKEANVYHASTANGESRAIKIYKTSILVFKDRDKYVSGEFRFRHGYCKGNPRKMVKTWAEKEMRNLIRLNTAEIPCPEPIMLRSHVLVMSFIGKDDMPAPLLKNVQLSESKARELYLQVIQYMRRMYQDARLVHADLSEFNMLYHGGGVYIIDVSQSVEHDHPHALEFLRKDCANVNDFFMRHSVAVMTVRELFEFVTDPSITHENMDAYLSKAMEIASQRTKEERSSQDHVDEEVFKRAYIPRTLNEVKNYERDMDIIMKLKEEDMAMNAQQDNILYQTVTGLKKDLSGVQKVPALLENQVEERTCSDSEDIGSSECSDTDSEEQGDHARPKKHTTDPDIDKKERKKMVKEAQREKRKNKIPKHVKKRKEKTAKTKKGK
The following applies: RIOK1; 1 uM; read-out: Percent Control (%). The procedure, abridged: as §1

For test [8], the target named is T8, scanMAX Kinase assay panel (Homo sapiens, UniProt Q9H4B4).
T8 construct: purchased DiscoverX
The following applies: PLK3; 1 uM; read-out: Percent Control (%). The procedure, abridged: as §1

Test [9] deals with T9, scanMAX Kinase assay panel (Homo sapiens, UniProt Q9HCP0).
T9 construct: purchased DiscoverX
T9 sequence (Q9HCP0 whole entry): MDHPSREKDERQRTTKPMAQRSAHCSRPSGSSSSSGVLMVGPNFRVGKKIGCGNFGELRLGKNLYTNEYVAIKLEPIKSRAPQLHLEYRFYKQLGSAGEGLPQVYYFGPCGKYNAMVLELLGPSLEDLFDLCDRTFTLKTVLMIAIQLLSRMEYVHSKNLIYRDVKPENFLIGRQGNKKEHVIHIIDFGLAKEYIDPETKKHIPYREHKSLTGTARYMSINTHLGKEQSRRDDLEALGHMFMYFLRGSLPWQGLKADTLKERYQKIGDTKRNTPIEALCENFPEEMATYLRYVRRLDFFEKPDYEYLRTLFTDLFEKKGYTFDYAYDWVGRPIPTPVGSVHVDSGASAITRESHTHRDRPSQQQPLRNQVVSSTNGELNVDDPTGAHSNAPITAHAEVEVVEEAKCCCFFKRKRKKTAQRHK
The following applies: CSNK1G1; 1 uM; read-out: Percent Control (%). The procedure, abridged: as §1

The target in test [10] is T10, scanMAX Kinase assay panel (Homo sapiens, UniProt Q9NWZ3).
T10 construct: purchased DiscoverX
T10 sequence (Q9NWZ3 1-460): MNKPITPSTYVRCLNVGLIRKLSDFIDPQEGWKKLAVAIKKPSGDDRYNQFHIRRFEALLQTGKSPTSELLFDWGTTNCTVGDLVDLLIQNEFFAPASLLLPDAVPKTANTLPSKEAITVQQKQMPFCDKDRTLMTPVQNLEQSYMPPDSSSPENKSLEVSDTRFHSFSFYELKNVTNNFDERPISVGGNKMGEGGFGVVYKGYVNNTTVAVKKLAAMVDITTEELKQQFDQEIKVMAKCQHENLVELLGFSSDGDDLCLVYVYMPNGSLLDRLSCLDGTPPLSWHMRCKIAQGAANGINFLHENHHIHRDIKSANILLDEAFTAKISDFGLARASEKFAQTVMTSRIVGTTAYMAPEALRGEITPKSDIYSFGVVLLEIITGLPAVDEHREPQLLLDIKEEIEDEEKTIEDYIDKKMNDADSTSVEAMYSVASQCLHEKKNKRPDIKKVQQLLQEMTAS
The note with it: IRAK4; 1 uM; read-out: Percent Control (%). The procedure, abridged:
as §1

Test [11] has as its target T11, scanMAX Kinase assay panel (Homo sapiens, UniProt Q9UM73, L1196M).
T11 construct: purchased DiscoverX
The following applies: ALK (L1196M); 1 uM; read-out: Percent Control (%). The procedure, abridged: as §1

For test [12], the target named is T12, scanMAX Kinase assay panel (Homo sapiens, UniProt Q9Y616).
T12 construct: purchased DiscoverX
T12 sequence (Q9Y616 1-596): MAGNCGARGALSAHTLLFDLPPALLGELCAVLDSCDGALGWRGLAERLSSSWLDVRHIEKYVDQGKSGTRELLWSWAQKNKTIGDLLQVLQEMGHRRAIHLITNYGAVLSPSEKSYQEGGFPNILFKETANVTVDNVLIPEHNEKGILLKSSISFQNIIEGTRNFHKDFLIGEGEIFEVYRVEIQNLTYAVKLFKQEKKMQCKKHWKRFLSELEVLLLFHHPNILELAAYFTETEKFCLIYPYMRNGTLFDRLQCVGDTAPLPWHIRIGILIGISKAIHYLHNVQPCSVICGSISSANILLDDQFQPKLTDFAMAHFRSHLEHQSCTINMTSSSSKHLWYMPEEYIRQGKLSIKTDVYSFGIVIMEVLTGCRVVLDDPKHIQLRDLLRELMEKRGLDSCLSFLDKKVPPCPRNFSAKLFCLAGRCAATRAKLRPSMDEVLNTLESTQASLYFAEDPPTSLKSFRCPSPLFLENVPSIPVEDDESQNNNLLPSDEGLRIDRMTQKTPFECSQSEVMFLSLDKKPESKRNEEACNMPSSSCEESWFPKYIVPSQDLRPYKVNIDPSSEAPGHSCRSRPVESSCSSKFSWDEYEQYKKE
The note with it: IRAK3; 1 uM; read-out: Percent Control (%). The procedure, abridged: as §1

T3 sequence (P09769 whole entry): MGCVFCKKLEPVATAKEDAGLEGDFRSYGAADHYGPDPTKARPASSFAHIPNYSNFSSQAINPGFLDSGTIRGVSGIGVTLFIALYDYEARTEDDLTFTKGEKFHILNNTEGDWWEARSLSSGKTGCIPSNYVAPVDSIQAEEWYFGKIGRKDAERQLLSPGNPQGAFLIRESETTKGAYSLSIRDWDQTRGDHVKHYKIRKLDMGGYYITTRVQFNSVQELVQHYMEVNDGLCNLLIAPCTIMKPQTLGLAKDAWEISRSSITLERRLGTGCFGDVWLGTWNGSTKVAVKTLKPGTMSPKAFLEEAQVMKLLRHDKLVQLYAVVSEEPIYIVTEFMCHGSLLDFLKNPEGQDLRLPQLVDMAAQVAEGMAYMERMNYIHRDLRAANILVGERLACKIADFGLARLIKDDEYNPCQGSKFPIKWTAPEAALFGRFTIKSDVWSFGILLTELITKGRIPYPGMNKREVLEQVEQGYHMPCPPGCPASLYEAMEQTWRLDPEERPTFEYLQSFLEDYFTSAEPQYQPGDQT
T2 sequence (P08069 31-1367): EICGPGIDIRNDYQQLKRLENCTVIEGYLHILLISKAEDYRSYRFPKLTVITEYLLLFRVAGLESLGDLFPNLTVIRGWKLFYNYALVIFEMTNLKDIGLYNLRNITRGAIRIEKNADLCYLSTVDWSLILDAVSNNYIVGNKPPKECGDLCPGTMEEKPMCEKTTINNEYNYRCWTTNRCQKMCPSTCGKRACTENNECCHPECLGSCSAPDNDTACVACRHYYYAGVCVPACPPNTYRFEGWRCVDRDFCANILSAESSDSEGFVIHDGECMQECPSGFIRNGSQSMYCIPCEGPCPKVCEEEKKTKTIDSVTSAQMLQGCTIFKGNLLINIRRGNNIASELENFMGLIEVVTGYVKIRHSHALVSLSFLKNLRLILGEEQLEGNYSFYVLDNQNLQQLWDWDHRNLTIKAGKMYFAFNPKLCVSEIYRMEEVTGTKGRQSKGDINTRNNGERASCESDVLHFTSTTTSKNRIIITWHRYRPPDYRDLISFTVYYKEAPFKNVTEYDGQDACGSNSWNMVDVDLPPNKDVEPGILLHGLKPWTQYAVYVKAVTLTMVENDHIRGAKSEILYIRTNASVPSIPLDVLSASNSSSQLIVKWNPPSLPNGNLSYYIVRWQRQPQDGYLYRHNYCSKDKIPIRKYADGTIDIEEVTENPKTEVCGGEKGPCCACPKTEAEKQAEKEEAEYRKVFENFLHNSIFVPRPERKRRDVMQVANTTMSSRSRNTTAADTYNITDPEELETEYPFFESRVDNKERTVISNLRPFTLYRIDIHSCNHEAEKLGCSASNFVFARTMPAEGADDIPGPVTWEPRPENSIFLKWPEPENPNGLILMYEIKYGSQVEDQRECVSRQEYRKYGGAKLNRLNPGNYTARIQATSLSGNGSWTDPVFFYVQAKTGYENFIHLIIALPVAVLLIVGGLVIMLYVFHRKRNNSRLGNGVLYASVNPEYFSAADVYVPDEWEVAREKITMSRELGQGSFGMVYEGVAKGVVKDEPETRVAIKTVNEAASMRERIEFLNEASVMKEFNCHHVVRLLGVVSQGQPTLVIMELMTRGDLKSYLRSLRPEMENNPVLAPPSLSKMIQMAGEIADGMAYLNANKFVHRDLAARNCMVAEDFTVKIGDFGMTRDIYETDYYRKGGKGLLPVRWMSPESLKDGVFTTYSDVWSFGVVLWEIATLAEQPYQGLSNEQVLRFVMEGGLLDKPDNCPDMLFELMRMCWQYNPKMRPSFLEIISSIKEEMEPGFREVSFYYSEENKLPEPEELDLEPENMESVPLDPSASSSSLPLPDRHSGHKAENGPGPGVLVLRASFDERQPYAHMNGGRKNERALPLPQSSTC
T11 sequence (Q9UM73 19-1620 L1196M): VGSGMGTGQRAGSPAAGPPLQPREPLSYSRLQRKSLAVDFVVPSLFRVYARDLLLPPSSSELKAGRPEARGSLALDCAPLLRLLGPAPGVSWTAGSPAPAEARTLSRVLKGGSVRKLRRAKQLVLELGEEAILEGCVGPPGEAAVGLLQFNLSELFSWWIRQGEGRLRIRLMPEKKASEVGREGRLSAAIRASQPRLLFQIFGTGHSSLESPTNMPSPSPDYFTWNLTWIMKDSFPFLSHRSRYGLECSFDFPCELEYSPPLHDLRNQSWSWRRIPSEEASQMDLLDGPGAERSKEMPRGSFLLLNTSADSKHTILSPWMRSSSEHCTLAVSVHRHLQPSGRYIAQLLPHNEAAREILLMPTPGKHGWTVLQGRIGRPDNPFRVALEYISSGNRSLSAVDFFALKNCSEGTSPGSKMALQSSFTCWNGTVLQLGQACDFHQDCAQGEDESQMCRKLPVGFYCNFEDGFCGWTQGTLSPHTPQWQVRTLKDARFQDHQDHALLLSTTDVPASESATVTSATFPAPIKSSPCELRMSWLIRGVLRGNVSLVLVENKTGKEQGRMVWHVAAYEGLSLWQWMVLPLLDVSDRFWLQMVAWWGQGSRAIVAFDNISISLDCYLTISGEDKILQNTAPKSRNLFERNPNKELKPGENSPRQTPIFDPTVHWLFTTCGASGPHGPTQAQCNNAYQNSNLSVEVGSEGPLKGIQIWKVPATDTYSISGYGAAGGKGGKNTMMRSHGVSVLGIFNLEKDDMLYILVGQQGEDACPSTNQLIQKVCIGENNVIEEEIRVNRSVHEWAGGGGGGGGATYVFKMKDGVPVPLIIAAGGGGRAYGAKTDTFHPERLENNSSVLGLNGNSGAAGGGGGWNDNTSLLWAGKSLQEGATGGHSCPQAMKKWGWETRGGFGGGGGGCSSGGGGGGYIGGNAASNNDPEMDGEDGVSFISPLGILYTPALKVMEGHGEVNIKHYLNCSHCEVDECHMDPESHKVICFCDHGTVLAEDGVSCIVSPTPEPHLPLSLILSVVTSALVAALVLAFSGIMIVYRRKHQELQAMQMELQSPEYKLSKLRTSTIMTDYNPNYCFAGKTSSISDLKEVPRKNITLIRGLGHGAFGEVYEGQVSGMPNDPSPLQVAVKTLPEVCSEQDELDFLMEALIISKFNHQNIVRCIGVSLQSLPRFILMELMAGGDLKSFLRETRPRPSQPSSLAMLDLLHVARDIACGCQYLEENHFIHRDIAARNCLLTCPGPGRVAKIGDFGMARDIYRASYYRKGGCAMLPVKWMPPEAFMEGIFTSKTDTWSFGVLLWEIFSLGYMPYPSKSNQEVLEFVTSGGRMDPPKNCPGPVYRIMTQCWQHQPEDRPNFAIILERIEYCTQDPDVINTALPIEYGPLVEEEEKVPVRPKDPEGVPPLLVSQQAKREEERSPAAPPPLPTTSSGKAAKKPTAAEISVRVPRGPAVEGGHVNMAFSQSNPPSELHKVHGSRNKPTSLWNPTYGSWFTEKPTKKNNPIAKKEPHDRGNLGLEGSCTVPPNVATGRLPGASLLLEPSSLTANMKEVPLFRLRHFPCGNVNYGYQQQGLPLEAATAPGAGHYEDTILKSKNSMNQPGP
T1 sequence (P06241 whole entry): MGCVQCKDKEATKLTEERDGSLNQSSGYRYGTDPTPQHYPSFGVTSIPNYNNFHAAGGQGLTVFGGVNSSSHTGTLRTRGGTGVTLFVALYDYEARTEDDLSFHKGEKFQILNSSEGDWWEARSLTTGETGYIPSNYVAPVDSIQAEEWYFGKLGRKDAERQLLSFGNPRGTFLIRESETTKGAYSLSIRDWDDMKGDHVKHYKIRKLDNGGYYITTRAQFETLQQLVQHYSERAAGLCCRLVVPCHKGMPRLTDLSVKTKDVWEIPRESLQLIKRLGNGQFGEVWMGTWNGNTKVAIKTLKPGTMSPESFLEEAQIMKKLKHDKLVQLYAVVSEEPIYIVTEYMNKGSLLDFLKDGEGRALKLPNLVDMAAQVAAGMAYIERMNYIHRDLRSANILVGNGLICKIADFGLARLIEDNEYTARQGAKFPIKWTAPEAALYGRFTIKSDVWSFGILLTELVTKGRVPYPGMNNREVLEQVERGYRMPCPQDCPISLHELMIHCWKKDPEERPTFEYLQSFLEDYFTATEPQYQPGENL

As for `Cc1ccc(C(=O)Nc2ccc(CN3CCN(C)CC3)c(C(F)(F)F)c2)cc1C#Cc1cnc2c(Nc3cnn(C)c3)cccn12` [Example 1, 4-methyl-3-((8-((1-methyl-1H-pyrazol-4-yl)amino)imidazo[1,2-a]pyridin-3-yl)ethynyl)-N-(4-((4-methylpiperazin-1-yl)methyl)-3-(trifluoromethyl)phenyl)benzamide], the remaining binding at 1 µM stood at 1% in [1]; 56% in test [2]; 0% in test [3]; 97% in test [4]; 100% in test [5]; 0% in test [6]. Also, the remaining binding at 1 µM was 77% in test [7]; 77% in test [8]; 73% in test [9]; 22% in test [10]; 29% in test [11]; 84% in [12].
As to `Cc1cn(-c2cc(NC(=O)c3ccc(C)c(C#Cc4cnc5c(Nc6cnn(C)c6)cccn45)c3)cc(C(F)(F)F)c2)cn1` [Example 12, 4-methyl-N-(3-(4-methyl-1H-imidazol-1-yl)-5-(trifluoromethyl)phenyl)-3-((8-((1-methyl-1H-pyrazol-4-yl)amino)imidazo[1,2-a]pyridin-3-yl)ethynyl)benzamide], the remaining binding at 1 µM in test [1] stood at 15%; in [2] it was 100%; in test [3], 4%; in [4] it was 87%; in test [5] it was 97%; in test [6], 6%. In addition, the remaining binding at 1 µM in test [7] was 91%; in [8], 100%; in [9], 95%; in test [10], 81%; in test [11], 100%; in [12] it was 72%.
For the compound `Cc1ccc(NC(=O)C2(C(=O)Nc3ccc(F)cc3)CC2)cc1C#Cc1cnc2c(Nc3cnn(C(C)C)c3)cccn12` [Example 78], the remaining binding at 1 µM turned out to be 84% in [1]; 100% in [2]; 80% in test [3]; 100% in test [4]; 100% in test [5]; 88% in test [6]. The remaining binding at 1 µM in test [7] came to 100%; in [8] it was 92%; in test [9] it was 100%; in test [10], 100%; in test [11], 100%; in [12] it was 87%.
